Like-named read-outs stand apart in the source and are kept apart here.
Legend:
[1] = biological target: human recombinant CB1 receptor (Homo sapiens, UniProt P21554); test: CB1 receptor binding assay; conditions: mean ± SD; for CB1 Receptor Max Tested (% Displacement): 10 µM
Protocol: (§1) The analysis of CB1 and CB2 receptor binding was performed exactly as described in [21].

[2] = biological target: human recombinant CB2 receptor (Homo sapiens, UniProt P34972); test: CB2 receptor binding assay; conditions: mean ± SD; for CB2 Receptor Max Tested (% Displacement): 10 µM
Protocol: as §1

[3] = biological target: T1, human recombinant TRPV1 (Homo sapiens, UniProt Q8NER1); test: TRPV1-mediated intracellular calcium elevation; format: cell-based; conditions: mean ± SD; for IC50: assayed using 100 nM capsaicin, read-out: Desensibilization (IC50); for Emax: read-out: Efficacy (% Max Response)
T1 construct: expressed in transfected cells
From the text: (§2) These assays we preformed exactly as described in [21].

[4] = biological target: T2, human recombinant 15-LO-1 (Homo sapiens, UniProt P16050); test: Metabolism of substrates by recombinant 15-LO-1, LC-MS/MS; format: biochemical; conditions: 10 µM 1-LG, 5 min, 37 °C
T2 sequence (P16050 1-662): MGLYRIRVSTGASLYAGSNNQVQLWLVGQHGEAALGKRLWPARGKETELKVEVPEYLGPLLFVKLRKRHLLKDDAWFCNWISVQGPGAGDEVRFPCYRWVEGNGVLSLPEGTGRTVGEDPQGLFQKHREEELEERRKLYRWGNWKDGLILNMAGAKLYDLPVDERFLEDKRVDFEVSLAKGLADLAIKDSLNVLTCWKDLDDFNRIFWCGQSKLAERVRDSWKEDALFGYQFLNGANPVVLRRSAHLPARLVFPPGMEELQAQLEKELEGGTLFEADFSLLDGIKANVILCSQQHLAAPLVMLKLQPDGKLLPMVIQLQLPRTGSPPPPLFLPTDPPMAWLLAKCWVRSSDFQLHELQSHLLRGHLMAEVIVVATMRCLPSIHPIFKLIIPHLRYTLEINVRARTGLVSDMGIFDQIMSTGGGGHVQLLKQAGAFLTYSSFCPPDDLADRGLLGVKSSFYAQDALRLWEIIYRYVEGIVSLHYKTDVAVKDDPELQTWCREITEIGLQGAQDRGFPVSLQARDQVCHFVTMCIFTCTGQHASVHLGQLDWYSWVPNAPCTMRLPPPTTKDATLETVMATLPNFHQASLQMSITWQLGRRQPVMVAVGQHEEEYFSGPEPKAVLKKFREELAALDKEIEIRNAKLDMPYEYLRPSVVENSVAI
Protocol: (§3) Recombinant human 15-LO-1 and 15-LO-2 enzymes were added to HEPES 25 mM + 0.01% Triton (14 μg/mL for 15-LO-1, 56 μg/mL for 15-LO-2). A total of 10 μM of the fatty acids were added to the buffer for 5 min (15-LO-1) or 15 min (15-LO-2), at 37 °C. The final volume of the reaction mix was 100 µL. After the incubation, 50 µL of NaBH4 1M was added to the reaction, for 5 min at 37 °C. The reactions were stopped by adding 0.5 mL of cold (−20 °C) methanol +0.01% acetic acid and kept at −30 °C until further processing.
(§4) Figure 3 Metabolism of 1-LG, LA and LEA by human recombinant 15-LO-1 and 15-LO-2. Human recombinant 15-LO-1 (A–D) or 15-LO-2 (E–H) were incubated at 37 °C in HEPES 25 mM containing 0.01% triton. A total of 10 μM of LA (A,D,E,H); 1-LG (B,D,F,H) or LEA (D,H) were added for 5 min (15-LO-1) or 15 min (15-LO-2). NaBH4 was then added for 5 min and incubations were stopped by the addition of 0.5 mL of cold (−20 °C) MeOH containing 0.01% acetic acid and the internal standards. Samples then were processed for LC-MS/MS analyses as described in methods. Results are the mean (±SEM) of 3 independent experiments.

[5] = biological target: T3, human recombinant 15-LO-2 (Homo sapiens, UniProt O15296); test: Metabolism of substrates by recombinant 15-LO-2, LC-MS/MS; format: biochemical; conditions: 10 µM 1-LG, 15 min, 37 °C
T3 sequence (O15296 1-676): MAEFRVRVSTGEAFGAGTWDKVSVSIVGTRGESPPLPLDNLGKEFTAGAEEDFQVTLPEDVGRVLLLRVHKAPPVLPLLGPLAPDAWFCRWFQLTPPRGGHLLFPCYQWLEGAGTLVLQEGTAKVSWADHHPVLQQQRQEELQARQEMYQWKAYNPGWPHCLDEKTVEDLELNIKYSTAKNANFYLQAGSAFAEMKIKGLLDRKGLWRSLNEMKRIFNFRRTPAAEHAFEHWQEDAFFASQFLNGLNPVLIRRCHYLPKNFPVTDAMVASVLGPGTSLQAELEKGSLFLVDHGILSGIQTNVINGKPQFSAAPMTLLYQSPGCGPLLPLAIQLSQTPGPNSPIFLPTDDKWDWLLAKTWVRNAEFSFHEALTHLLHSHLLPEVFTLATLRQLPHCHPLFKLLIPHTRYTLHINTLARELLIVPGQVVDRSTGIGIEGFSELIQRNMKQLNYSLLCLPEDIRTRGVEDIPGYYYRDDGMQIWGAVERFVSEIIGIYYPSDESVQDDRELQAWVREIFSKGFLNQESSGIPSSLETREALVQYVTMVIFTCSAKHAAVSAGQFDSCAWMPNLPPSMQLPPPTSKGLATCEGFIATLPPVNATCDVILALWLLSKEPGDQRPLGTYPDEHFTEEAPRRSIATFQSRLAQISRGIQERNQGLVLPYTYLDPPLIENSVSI
Protocol: as §3, §4

[6] = system: human eosinophils; test: Biosynthesis of 15-LO metabolites by human eosinophils; conditions: for Delay before metabolism into 15-lipoxygenase counterpart / Time of maximal levels of 15-lipoxygenase metabolite: 3 µM substrate; for Time of maximal levels of 15-lipoxygenase metabolite: longest time point studied; for Times more metabolite in eosinophils than in neutrophils: same donors, combination of LA, 1-LG and LEA at 3 µM each, 5 min
[7] = system: human neutrophils; test: Biosynthesis of 15-LO metabolites by human neutrophils
[8] = biological target: T4, PPAR-α (Homo sapiens, UniProt Q07869); test: PPAR-α functional (transcriptional) activity assay kit; format: cell-based; conditions: 30 µM, overnight
T4 construct: purchased
T4 sequence (Q07869 1-468): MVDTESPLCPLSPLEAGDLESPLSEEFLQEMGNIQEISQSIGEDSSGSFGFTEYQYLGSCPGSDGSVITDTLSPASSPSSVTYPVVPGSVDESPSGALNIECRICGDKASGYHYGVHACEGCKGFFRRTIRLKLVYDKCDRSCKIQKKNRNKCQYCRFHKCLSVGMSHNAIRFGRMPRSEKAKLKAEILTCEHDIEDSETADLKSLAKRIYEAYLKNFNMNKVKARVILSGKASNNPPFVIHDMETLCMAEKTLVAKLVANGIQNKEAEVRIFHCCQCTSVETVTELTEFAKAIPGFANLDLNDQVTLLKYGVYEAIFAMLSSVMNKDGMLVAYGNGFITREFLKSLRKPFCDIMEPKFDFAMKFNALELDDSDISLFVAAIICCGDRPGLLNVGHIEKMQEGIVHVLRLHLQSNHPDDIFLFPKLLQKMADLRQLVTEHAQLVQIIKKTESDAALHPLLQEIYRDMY
Protocol: as §2
(§5) Figure 10 Impact of 13-HODE and 13-HODE-G on PPAR activity. Cells were incubated with 30 µM 13-HODE, 13-HODE-G, or OEA overnight and PPAR activity was measured using the PPAR assay kits according to the manufacturers’ instructions. Rosiglitazone (10 µM) and GW 590735 (100 nM) were utilized as positive controls for the (A) PPAR-γ and (B) PPAR-α assays, respectively. Data represent the mean (± SEM) of three (PPAR-γ) or five (PPAR-α) experiments, each performed in triplicates. p values were obtained by performing a 2-way ANOVA with a Sidak multiple comparison tests. **** p < 0.0001, *** p < 0.001. ns: p > 0.05.

[9] = system: human neutrophils; test: Hydrolysis/stability of added 13-HODE-EA in neutrophil suspensions; format: in vitro ADME; conditions: neutrophils 5 × 10^6 cells/mL
[10] = system: human eosinophils; test: Hydrolysis/stability of added 13-HODE-EA in eosinophil suspensions; format: in vitro ADME; conditions: eosinophils 10^6 cells/mL
[11] = biological target: T2, human recombinant 15-LO-1; set-up: method as in PMID 33915294; conditions: previous publication; cited from earlier work
[12] = biological target: T3, human recombinant 15-LO-2; set-up: method as in PMID 33915294; conditions: previous publication; cited from earlier work
[13] = biological target: T5, PPAR-γ (Homo sapiens, UniProt P37231); test: PPAR-γ functional (transcriptional) activity assay kit; format: cell-based; conditions: 30 µM, overnight
T5 construct: purchased
T5 sequence (P37231 1-505): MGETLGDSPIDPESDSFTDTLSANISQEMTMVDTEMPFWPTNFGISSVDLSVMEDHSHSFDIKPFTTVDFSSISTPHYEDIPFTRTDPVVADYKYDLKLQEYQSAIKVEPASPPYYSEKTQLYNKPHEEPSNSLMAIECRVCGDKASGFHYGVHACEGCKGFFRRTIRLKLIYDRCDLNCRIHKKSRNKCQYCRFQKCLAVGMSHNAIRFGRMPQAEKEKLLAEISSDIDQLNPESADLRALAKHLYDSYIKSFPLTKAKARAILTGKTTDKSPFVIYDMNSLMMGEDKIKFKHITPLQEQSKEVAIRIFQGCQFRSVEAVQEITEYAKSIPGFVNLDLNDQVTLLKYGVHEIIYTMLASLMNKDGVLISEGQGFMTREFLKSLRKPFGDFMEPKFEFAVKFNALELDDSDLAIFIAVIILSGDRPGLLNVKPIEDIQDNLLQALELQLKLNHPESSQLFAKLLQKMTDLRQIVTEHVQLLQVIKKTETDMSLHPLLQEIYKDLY
Protocol: as §2, §5

[14] = Detection of 13-HODE-G in human samples by LC-MS/MS; conditions: mean ± SEM, n = 5
[15] = system: human neutrophils; test: Inhibition of 13-HODE-G and 13-HODE-EA biosynthesis by 15-LO inhibitors in neutrophils; format: cell-based; conditions: inhibitor 10 µM 5 min, then 3 µM LEA or 1-LG 5 min
From the text: Figure 9 Inhibition of 13-HODE-G and 13-HODE-EA biosynthesis by 15-LO inhibitors in human eosinophils and neutrophils. […] Samples then were processed for LC-MS/MS analyses as described in methods. Results are the mean (±SEM) of 4 independent experiments.

[16] = intracellular calcium elevation

T1 sequence (Q8NER1 whole entry): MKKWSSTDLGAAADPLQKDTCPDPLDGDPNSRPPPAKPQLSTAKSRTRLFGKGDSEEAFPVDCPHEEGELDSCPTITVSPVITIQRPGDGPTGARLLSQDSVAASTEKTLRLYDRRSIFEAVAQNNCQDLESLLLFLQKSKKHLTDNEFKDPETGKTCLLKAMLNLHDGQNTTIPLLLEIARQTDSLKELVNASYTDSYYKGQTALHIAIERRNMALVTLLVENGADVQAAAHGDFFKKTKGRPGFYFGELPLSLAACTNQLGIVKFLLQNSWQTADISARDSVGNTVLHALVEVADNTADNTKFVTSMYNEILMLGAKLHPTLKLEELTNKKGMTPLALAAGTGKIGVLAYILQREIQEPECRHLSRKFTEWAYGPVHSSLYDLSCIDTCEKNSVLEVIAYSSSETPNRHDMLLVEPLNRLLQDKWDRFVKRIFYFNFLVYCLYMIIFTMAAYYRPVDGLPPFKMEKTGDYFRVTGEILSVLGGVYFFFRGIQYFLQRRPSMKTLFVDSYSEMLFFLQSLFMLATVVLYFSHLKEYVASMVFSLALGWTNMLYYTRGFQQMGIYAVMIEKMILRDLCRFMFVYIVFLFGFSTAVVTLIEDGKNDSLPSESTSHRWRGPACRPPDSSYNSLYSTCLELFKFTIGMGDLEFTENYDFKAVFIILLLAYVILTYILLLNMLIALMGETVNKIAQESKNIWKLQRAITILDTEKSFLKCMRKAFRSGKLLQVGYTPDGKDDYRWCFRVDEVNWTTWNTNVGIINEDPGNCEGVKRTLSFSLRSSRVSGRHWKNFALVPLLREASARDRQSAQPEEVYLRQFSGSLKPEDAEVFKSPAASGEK
Chain of human recombinant CB2 receptor (P34972 whole entry): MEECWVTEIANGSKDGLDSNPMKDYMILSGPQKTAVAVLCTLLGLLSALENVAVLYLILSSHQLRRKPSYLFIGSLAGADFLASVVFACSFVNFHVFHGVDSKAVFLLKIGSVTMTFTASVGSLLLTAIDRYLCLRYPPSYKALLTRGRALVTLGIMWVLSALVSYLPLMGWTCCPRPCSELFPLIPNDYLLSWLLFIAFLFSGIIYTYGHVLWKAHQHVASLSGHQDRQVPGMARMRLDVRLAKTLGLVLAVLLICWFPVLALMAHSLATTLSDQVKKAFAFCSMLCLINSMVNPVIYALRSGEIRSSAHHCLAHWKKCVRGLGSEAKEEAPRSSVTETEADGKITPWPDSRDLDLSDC
Chain of human recombinant CB1 receptor (P21554 whole entry): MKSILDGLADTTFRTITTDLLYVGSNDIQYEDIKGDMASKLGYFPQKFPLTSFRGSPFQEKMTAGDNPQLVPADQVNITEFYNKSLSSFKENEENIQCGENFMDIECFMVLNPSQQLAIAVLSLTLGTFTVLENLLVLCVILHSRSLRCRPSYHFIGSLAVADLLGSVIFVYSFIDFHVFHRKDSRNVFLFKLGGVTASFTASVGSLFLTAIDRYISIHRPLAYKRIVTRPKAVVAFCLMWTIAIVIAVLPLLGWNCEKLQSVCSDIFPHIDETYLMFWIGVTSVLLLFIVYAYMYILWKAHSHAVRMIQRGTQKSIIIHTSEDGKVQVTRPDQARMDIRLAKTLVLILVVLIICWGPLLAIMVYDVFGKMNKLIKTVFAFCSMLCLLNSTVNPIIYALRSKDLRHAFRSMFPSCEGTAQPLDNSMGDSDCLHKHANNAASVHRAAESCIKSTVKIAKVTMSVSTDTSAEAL

CB1 Receptor Max Tested (% Displacement) [1] | IC50 [1] | Ki [1] | CB2 Receptor Max Tested (% Displacement) [2] | IC50 [2] | Ki [2] | IC50 [3] | Emax [3, 16] | Time of maximal levels of 15-lipoxygenase metabolite [6] | Structure (SMILES) | Times more metabolite in eosinophils than in neutrophils [6] | other results
10µM (95.8 ± 16.4) % | 2.81 ± 0.85 µM | 0.31 ± 0.15 µM | 10 µM (28.45 ± 9.4) % | > 10 µM | > 10 µM | 2.7 ± 0.3 µM | 46.5 ± 0.9% | 15 min | CCCCC/C=C\C/C=C\CCCCCCCC(=O)OCC(O)CO (stereo not shown) [1-LG, 1-linoleoyl-glycerol] |  | EC50 ([3]; intracellular calcium elevation, read-out: Potency (EC50)): 0.23 ± 0.02 µM; Efficacy of the reaction (1-LG to 13-HODE-G) [4]: 23%; Efficacy of the reaction (1-LG to 13-HODE-G) [5]: 40%; Delay before metabolism into 15-lipoxygenase counterpart [6]: ~ 1 min; Time to biosynthesis of 13-HODE derivatives ([7]; 3 µM substrate): 10 to 30 s
10 µM (7.56 ± 2.3) % | > 10 µM | > 10 µM | 10 µM (38.34 ± 5.4) % | > 10 µM | > 10 µM | > 50 µM | < 10% |  | CCCCC[C@H](O)/C=C/C=C\CCCCCCCC(=O)O [13-HODE, 13(S)-hydroxy-octodecadienoic acid] | ~ 30 times | Stimulation of PPAR-α transcriptional activity [8]: robust effect
 |  |  |  |  |  |  |  |  | CCCCC[C@H](O)/C=C/C=C\CCCCCCCC(=O)NCCO [13-HODE-EA, N-13-hydroxy-octodecadienoyl-ethanolamine] | ~ 500 times | Remaining after 15 min [9]: 60%; Remaining after 15 min [10]: 90%; 13-HODE-EA/13-HODE ratio [11]: ~ 3.5; 13-HODE-EA/13-HODE ratio [12]: ~ 3
10 µM (18.90 ± 6.1) % | > 10 µM | > 10 µM | 10 µM (33.58 ± 21.3) % | > 10 µM | > 10 µM | > 50 µM | < 10% |  | CCCCC[C@H](O)/C=C/C=C\CCCCCCCC(=O)OCC(O)CO (stereo partly shown) [13-HODE-G, 13-hydroxy-octodecadienoyl-glycerol] | ~ 60 times | Stimulation of PPAR-α transcriptional activity [8]: did not stimulate; Stimulation of PPAR-γ transcriptional activity [13]: did not stimulate; Level in human epidermis samples [14]: 21.9 ± 6.2 fmol/mg tissue
 |  |  |  |  |  |  |  | 15 min | CCCCC/C=C\C/C=C\CCCCCCCC(=O)O [LA, Linoleic acid] |  | Time of peak 13-HODE biosynthesis ([7]; 3 µM LA): 10 s; Time to biosynthesis of 13-HODE derivatives ([7]; 3 µM substrate): 10 to 30 s
 |  |  |  |  |  |  |  |  | CC(Cc1ccc(O)c(O)c1)C(C)Cc1ccc(O)c(O)c1 (stereo not shown) [NDGA] |  | Inhibition of biosynthesis of the investigated 15-LO metabolites [15]: did not inhibit

Structure (SMILES) | CB1 Receptor Max Tested (% Displacement) [1] | IC50 [1] | Ki [1] | CB2 Receptor Max Tested (% Displacement) [2] | IC50 [2] | Ki [2] | IC50 [3] | Emax [3, 16] | Time of maximal levels of 15-lipoxygenase metabolite [6] | Times more metabolite in eosinophils than in neutrophils [6] | other results
CCCCC/C=C\C/C=C\CCCCCCCC(=O)NCCO [LEA, N-linoleoyl-ethanolamine] |  |  |  |  |  |  |  |  | 15 min |  | Delay before metabolism into 15-lipoxygenase counterpart [6]: ~ 1 min; Ratio 13-HODE/13-HODE-EA [7]: 2.67 ± 0.590; Time to biosynthesis of 13-HODE derivatives [7]: 10 to 30 s

Source: article PMC8470279, “Biosynthesis of the Novel Endogenous 15-Lipoxygenase Metabolites N-13-Hydroxy-octodecadienoyl-ethanolamine and 13-Hydroxy-octodecadienoyl-glycerol by Human Neutrophils and Eosinophils” (Cells, 2021)
